We go through one molecule from US11919856B2, “Compounds” (UCL BUSINESS LTD, priority 2018, dated 2024).

The test system of data set [1] is CHO-TET-ON-Z-A1AT cells. Description: Cell viability assay with ER stressor tunicamycin. The format is cell-based. Particulars: 10 μM, versus cells expressing wild-type M α1-antitrypsin. As to the method: To investigate the ability of Compound 1 to protect cells from sensitisation to a secondary toxin, Z α1-antitrypsin expression was induced in CHO-TET-ON-Z-A1AT cells in the presence or absence of 10 μM Compound 1 before exposure to varying concentrations of the ER stressor tunicamycin. In a cell viability assay, cells expressing wild-type M α1-antitrypsin were less sensitive to tunicamycin than cells expressing Z α1-antitrypsin.

Data set [2] has as its target T1, Z α1-antitrypsin (Homo sapiens, UniProt P01009, E366K/V237A). Description: Rapid refolding (non-denaturing PAGE). The format is biochemical. Particulars: snap dilution refolding. As to the method:
Refolding of α1-antitrypsin in vitro is not fully reversible, due to loss of material from amorphous aggregation, polymerisation and misfolding. These contributions cannot be readily deconvoluted by bulk spectroscopic methods and therefore refolding was evaluated by non-denaturing PAGE. M and Z α1-antitrypsin at 9.6 mg/ml were denatured in 6 M urea and 15 mM sodium phosphate pH 8.0 for 4 hours at room temperature, and 1.25 μl was snap refolded into 250 μl PBS containing 0-50 μM Compound 1 and a normalised concentration of 5% v/v DMSO. After incubation for 1 hour at room temperature samples were analysed by Coomassie-stained 3-12% w/v acrylamide Bis-Tris Native PAGE gel (Life Technologies).
Mutations that interfere with the opening of […] or that perturb its interaction with the N-terminal portion of the reactive centre loop alter the ability of serpins to inhibit target proteases. The stoichiometry of inhibition (SI) was determined for M and Z α1-antitrypsin in discontinuous experiments against a model target protease, chymotrypsin. The pre-incubation of both variants with Compound 1 led to a >98% loss of protease inhibitory activity. […]

A short description of data set [3]: Permeability. Format: in vitro ADME.
Data set [4] has as its target T1, Z α1-antitrypsin. Put plainly: Intracellular Z α1-antitrypsin polymer formation in CHO-TET-ON-Z-A1AT cells (2C1 antibody). Format: cell-based. More on the design: expressed in transfected cells; host or cells: CHO Tet-On (CHO-K1) cells, doxycycline-induced. As to the method:
(§1) CHO Tet-On cells that conditionally express Z α1-antitrypsin (Ordóñez A et al. Hepatology 2013; 57(5):2049-60.) were simultaneously treated with 0.5 μg/mL […] and various concentrations of compounds for 48 hours in 6 well plates. Cells without doxycycline or treated with 1% v/v DMSO acted as controls. The cells were lysed and intracellular Z α1-antitrypsin polymer was evaluated by ELISA sandwich with the 2C1 monoclonal antibody (Miranda et al. Hepatology. 2010; 52:1078-88). Newly synthesised α1-antitrypsin was evaluated by growing cells induced to express Z α1-antitrypsin in DMEM without methionine (Met) and cysteine (Cys) for 1 h and then labelling with 1.3 MBq of ^35S-Met/Cys for 15 min. The cells were then rinsed and incubated in chase medium containing an excess of unlabeled Met and Cys for 0, 2 and 6 h. After the chase period, the medium was collected and cells were harvested. α1-Antitrypsin from the medium and cell lysates was immunoprecipitated with a polyclonal α1-antitrypsin antibody or the 2C1 monoclonal antibody that detects polymers by splitting each sample in two equal parts. Radiolabelled proteins were re-suspended in SDS loading buffer, boiled for 5 min, separated by 10% w/v acrylamide SDS-PAGE, and quantified by autoradiography.
CHO-K1 cells were incubated with/without doxycycline to express α1-antitrypsin and with or without the small molecule of interest, fixed with 3.7% v/v formaldehyde in PBS for 15 min, permeabilised with 0.1% v/v Triton X-100 in PBS and then blocked with 10% v/v FBS in PBS for 30 min. Cells were labelled with a rabbit polyclonal antibody to total α1-antitrypsin or the 2C1 monoclonal antibody that detects polymers followed by Texan red conjugated anti-rabbit or FITC labelled anti-mouse secondary antibodies respectively. Cells were imaged using an Axiovert 200 widefield fluorescence microscope (Carl Zeiss Microimaging Inc., Thornwood, NY).
(§2) Its ability to block Z α1-antitrypsin polymerisation in the ER during folding was assessed by adding Compound 1 to CHO-TET-ON-Z-A1AT cells (Ordóñez et al. Hepatology. 2013; 57(5):2049-60) with simultaneous induction of Z α1-antitrypsin expression using doxycycline. […] To investigate whether in addition to blocking polymerisation, Compound 1 was also able to increase secretion of Z α1-antitrypsin, Z α1-antitrypsin expression was induced in CHO-TET-ON-Z-A1AT cells, Compound 1 was added, and the total Z α1-antitrypsin in the supernatant was measured by immunoassay after 6 hours.

For data set [5], the target named is T1, Z α1-antitrypsin. Put plainly: Secretion of Z α1-antitrypsin from CHO-TET-ON-Z-A1AT cells (immunoassay of supernatant). The format is cell-based. More on the design: expressed in transfected cells; host or cells: CHO Tet-On (CHO-K1) cells, doxycycline-induced. As to the method:
as §1, §2

T1 sequence (P01009 25-418 V237A/E366K): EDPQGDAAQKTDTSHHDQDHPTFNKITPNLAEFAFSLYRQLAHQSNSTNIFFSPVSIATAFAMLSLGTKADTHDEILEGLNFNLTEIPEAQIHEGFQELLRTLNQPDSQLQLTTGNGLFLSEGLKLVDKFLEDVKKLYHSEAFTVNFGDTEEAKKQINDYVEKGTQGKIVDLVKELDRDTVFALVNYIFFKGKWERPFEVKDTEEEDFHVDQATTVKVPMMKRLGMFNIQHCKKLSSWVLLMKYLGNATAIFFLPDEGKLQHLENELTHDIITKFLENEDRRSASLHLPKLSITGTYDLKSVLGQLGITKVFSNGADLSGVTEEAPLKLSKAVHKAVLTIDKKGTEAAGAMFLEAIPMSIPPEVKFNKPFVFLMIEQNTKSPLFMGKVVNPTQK

On to `CCC[C@@H](NC(=O)c1cccc2c1CC(=O)N2)[C@@H](O)c1cccc(F)c1C` [Compound 1, N-[(1S,2R)-1-(3-fluoro-2-methylphenyl)-1-hydroxypentan-2-yl]-2-oxo-2,3-dihydro-1H-indole-4-carboxamide], for which the “sensitivity to tunicamycin in cell viability assay” value in data set [1] was “restored sensitivity”. Further, in data set [2], the “anodally-shifted migration (misfolded byproduct) of refolded Z variant” value is “corrected at stoichiometric concentrations and above”. Also, the Permeability result in data set [3] is “high”. Besides, the “polymer formation in Z α1-antitrypsin expressing cells” value in data set [4] (10 μM, CHO-TET-ON-Z-A1AT cells, tunicamycin experiment) is reported as “completely abrogated”. Further, the IC50 in data set [4] (CHO-TET-ON-Z-A1AT cells, doxycycline induction, 2C1 antibody, read-out: pIC50, intracellular formation of Z α1-antitrypsin polymers (converted)) is 501 nM. The “intracellular formation of Z α1-antitrypsin polymers” value in data set [4] (CHO-TET-ON-Z-A1AT cells, in comparison with controls) is listed as “completely blocked”. Besides, the EC50 in data set [4] (read-out: cellular activity at blocking Z α1-antitrypsin polymerisation (pEC50) (converted)) was 501 nM; in data set [5] (CHO-TET-ON-Z-A1AT cells, after 6 hours, read-out: pEC50, secretion of Z α1-antitrypsin (converted)), 501 nM; in data set [5] (cellular secretion assay, read-out: EC50 measured for secretion of Z α1-antitrypsin) it was around 300 nM. Besides, the “increase of secreted levels of Z α1-antitrypsin” value in data set [5] (CHO-TET-ON-Z-A1AT cells, supernatant after 6 hours, compared to vehicle control) was “approximately 3 fold”.
